Data reported in article PMC9855333, “1-(Arylsulfonyl-isoindol-2-yl)piperazines as 5-HT6R Antagonists: Mechanochemical Synthesis, In Vitro Pharmacological Properties and Glioprotective Activity” (Biomolecules, 2022).

System: C8-D1A astrocytes
Experiment: Glioprotection against rotenone-induced cytotoxicity, MTT
Format: cell-based, mouse
Settings: compound 0.25 µM, rotenone 0.5 µM, 24 h
Procedure: Mouse astrocytes (C8-D1A cell line, ATCC) were cultured in DMEM (Dulbecco’s Modified Eagle’s Medium) supplemented with 10% FBS (FBS; Gibco, Life Technologies, Carlsbad, CA, USA) and 1% antibiotic mixture (Gibco, Life Technologies, Carlsbad, CA, USA) at standard condition until the cells reached 80–90% confluence. Cells were harvested and seeded in 96-well plates at a density of 5000 cells/well. All experiments were conducted with a reduced amount of serum equal to 2.5%. The optimal amount of serum was determined experimentally on the basis of preliminary studies. […] Then 6-OHDA (20 µM) or rotenone (0.5 µM) were added and co-incubated for the next 24 h. The ability of tested compounds to prevent 6-OHDA-induced or rotenone-induced cytotoxicity was assessed by MTT assay following the protocol described above. The experiments were run three times in triplicates.
Considering the pivotal physiological role of astrocytes in contrasting oxidative stress and promoting tissue repair, supporting their neuroprotective function might be regarded as a tangible strategy to improve the current therapeutic needs in the treatment of neurodegenerative disorders. […] For this purpose, cells were co-incubated with the evaluated compounds (at the non-toxic concentration of 0.25 µM) and 6-OHDA or ROT (20 and 0.5 µM, respectively). After 24 h of incubation, the viability of astrocytes was determined using the MTT assay.

O=S(=O)(c1cccc(N2CCNCC2)c1)N1Cc2cccc(Br)c2C1 [3g, 4-Bromo-2-{[3-(piperazin-1-yl)phenyl]sulfonyl}isoindoline]
effect on ROT-induced cytotoxicity: decreased the cytotoxicity
